According to PMC7321408, “One-Pot Multicomponent Synthesis and Bioevaluation of Tetrahydroquinoline Derivatives as Potential Antioxidants, α-Amylase Enzyme Inhibitors, Anti-Cancerous and Anti-Inflammatory Agents” (Molecules, 2020):
Converted amounts (≈) assume the structure as drawn. Where two headings read alike, the source gives them in different places.

What was measured:
[1] = system: carrageenan-induced paw edema; experiment: Carrageenan-induced paw edema (in vivo anti-inflammatory activity); parameters: species or system BALB/C albino mice; unit not given beside the values; conditions: 10 mg/kg, mice, n = 5
Description: At 7–8 weeks old, male BALB/C albino mice (29–35 g), were purchased from The National Institute of Health (NIH), Islamabad, Pakistan. Five animals were housed per group and placed in a controlled temperature and humidity-controlled room (22 °C and 66 ± 5%, respectively) in a 12 h light–dark cycle and provided with water and food ad libitum. Ethical approval was taken from the bio-ethical committee of Quaid-I-Azam University (Approval No. BEC-FBS-QAU2018-119) and all protocols were conducted following the Ethical Guide to the Code of Practice for the Housing and Care of Animals Act 1986 (ARRIVE (Animal Research: Reporting In Vivo Experiments) guidelines). The anti-inflammatory activity of the synthesized compounds was evaluated by using the carrageenan-induced rat paw edema assay. To determine the dose response of tetrahydroquinoline derivatives, animals were first given a dose of 0.1, 1 and 10 mg/kg against 100 µL carrageenan (1% solution in normal saline)/paw. Treatment was given 60 min before carrageenan injection. Readings were taken at 4 h post carrageenan injection. The in vivo anti-inflammatory activity was performed following the procedure described by Koksal, et al. in 2017. Paw edema was induced by injecting 100 µL of 1% sterile carrageenan solution into the right hind paw of mice. Synthesized compounds (10 mg/kg), vehicle (saline with 2% DMSO) and drug (acetylsalicylic acid, ASA 10 mg/kg) were administered to the mice orally by gastric intubation 60 min before injecting carrageenan into the right hind paw. The decrease in edema was measured by vernier calipers every 2 h.

[2] = DPPH free radical scavenging assay; conditions: mean ± SEM, n = 3; for IC50 (DPPH radical scavenging): concentration to scavenge 50% of the DPPH radicals
Description: The % free radical scavenging activity (%FRSA) of the synthetic compounds was evaluated by the discoloration of an unstable DPPH reagent to the stable yellow-colored 2,2-diphenyl-1-picrylhydrazine molecule by accepting one electron from a donor antioxidant; the mechanism is shown in Scheme 2.
The % FRSA (free radical scavenging activity) of the synthetic compounds was determined by using the method of Tai et al. with slight modifications. The antioxidant potential was determined by detecting the capacity of the synthetic compounds to quench the DPPH free radicals. The synthetic compounds were taken in a 96-well plate at three-fold concentrations of 200 µg/mL, 66.6 µg/mL, 22.2 µg/mL and 7.4 µg/mL. DPPH free radicals were added to entire wells to make up the volume up to 200 µL. DMSO and ascorbic acid were taken as negative and positive controls, respectively. The absorbance was taken at 630nm using a microplate reader (ELx800 BioTek). The percentage of scavenging activity was calculated by the given formula:% scavenging activity = (1 − Abs/Abc) × 100
Abs = sample’s absorbance; Abc = control’s absorbance.

Hep-2C cells = experiment: MTT assay against Hep-2C cells; type: cell-based, Human; conditions: read-out: IC50 (Mean ± SEM) Hep-2C Cells
Description: Hep-2C cell line experiments were performed in the Immunology Lab of the National Institute of Health (NIH), Islamabad, Pakistan. Human cervix carcinoma cells Hep-2C (ATCC HB-8065) were cultured in Dulbecco’s modified Eagle’s medium (DMEM), comprising 10% fetal calf serum (10% FCS) and supplemented with 2 mM L-glutamine, 100 U/mL penicillin, 100 µg/mL streptomycin and 1 mM Na pyruvate, at 37 °C in a humidified 5% CO2 incubator.
The tetrazolium dye 3-(4, 5-dimethyl thiazolyl-2)-2, 5-diphenyltetrazolium bromide (MTT) was used to assess the cytotoxic potential of the test compounds. In living cells, MTT is reduced into its insoluble purple product formazan, which is measured spectrophotometrically.
Hep-2C cells, in a density of 1 × 10^6 (> 90% cell viability), were cultured in a 96-well plate and treated with different concentrations of the test compounds for 24, 48 and 72 h. Ten microliters of MTT (1 mg per mL) were added per well followed by incubation for 4 h. Insoluble formazan crystals were dissolved by adding 100 µL of DMSO. Cells were then incubated for another 2 h. Absorbance was measured at 570 nm by a microplate reader. Untreated Hep-2C cells were taken as controls and DMSO as a negative. % cell viability = (abssample − absblank)/(abscontrol − absblank) × 100

brine shrimp nauplii = experiment: Brine shrimp lethality bioassay; type: in vivo; conditions: 24 h, n = 3
Description: Brine shrimp eggs were hatched in a shallow rectangular plastic dish and filled with artificial seawater, which was prepared with a commercial salt mixture. In a 96-well plate, 150 µL of artificial seawater was added and 10 nauplii were added into this. Test compounds (400, 200, 100 and 50 µg/mL) were added into each well and the final volume was made up by adding the artificial seawater. The well plate was left uncovered under a lamp. The number of surviving shrimps were counted and recorded after 24 h. The test was repeated in triplicate. […] The percentage mortality (%M) was also calculated by dividing the number of dead nauplii by the total number and then multiplied by 100.

[3] = MTT cytotoxicity against raw macrophages; type: cell-based, albino rats; conditions: albino, rat; for viability at 24 h, 1 µM / viability at 24 h, 10 µM / viability at 24 h, 50 µM / viability at 24 h, 100 µM: peritoneal macrophages (raw macrophages), raw macrophages, MTT, read-out: % Cell Viability; for IC50 at 24 h: primary peritoneal macrophages, mean ± SEM, n = 3
Description: The % cell viability of the synthetic library was evaluated in vitro by measuring the mitochondrial dehydrogenase activity (MTT test) on raw macrophages.
The cytotoxic potential was assessed by using an MTT 3-(4,5-dimethyl thiazole-2-yl)-2,5- diphenyl tetrazolium bromide assay. Briefly, macrophages were extracted from the peritoneal cavity of albino rats and plated at a density of 1 × 10^6 per well in a 96-well plate and incubated in a 5% CO2 incubator at 37 °C for 24 h. The cells were treated with various concentrations of the test compounds (100 µM, 50 µM, 10 µM and 1 µM) or vehicle alone. The test compounds were first dissolved in DMSO to make a 100 mM stock solution and then further dilutions were made from this stock solution. After 24 h of incubation, 20 µL of MTT (1 mg/mL in normal saline) was added into each well and incubated under the same conditions for 2 h. Mitochondrial succinate dehydrogenase converted MTT in live cells into purple formazan crystals. The formazan crystals were then solubilized in 100 µL DMSO, and the absorbance was measured at 570 nm. The % cell viability was calculated by the following formula; % cell viability = (abssample − absblank)/(abscontrol − absblank) × 100

[4] = system: NO generated by LPS-induced macrophages; experiment: Nitric oxide assay (Griess) in LPS-induced macrophages; type: cell-based, murine; conditions: Mus musculus, Macrophage, 18 h, LPS 1 µg/mL, read-out: % NO Production (Mean ± SEM)
Description: A Griess reagent, a spectrophotometric determination of nitrite level, was carried out to measure the nitrite level in the conditioned medium of macrophages treated with lipopolysaccharide (LPS). Sodium nitrite (NaNO2) was used as a standard compound for the standard curve (Figure 8). The NO concentrations were obtained using the standard curve equation: y = 0.0083x + 0.0017, R^2 = 0.9999, where y is the absorbance at 540 nm and x is the NO concentration in µM. The inhibitory activity of the tested compounds towards NO generated by LPS-induced macrophages was obtained from the calculated value of x.
The anti-inflammatory effect of the synthesized compounds in murine macrophages was evaluated by using the Griess reaction method, described previously. In brief, 1 × 10^6 were plated in a 96-well plate and incubated in a 5% CO2 incubator at 37 °C for 24 h, pre-treated with different concentrations (100 µM, 50 µM, 10 µM and 1 µM) of synthetic compounds for another 2 h and challenged with LPS (1 µg/mL) for an additional 18 h. Equal volumes of Griess reagent (1% sulphanilamide in 50% phosphoric acid and 0.1% naphthyl ethylenediamine dihydrochloride in distilled water and vortexed) and culture medium were mixed and the absorbance was taken at 540 nm. Lipopolysaccharide (LPS) was taken as a blank and piroxicam was taken as a positive control. A t-test was applied to determine the significance of the results.

| SMILES | % DPPH Scavenging Activity ([2]; 7.4 µg/mL) [%] | % DPPH Scavenging Activity ([2]; 22.22 µg/mL) [%] | % DPPH Scavenging Activity ([2]; 66.66 µg/mL) [%] | % DPPH Scavenging Activity ([2]; 200 µg/mL) [%] | IC50 (DPPH radical scavenging) [2] [µg/mL] | LD50 ± SEM (brine shrimp lethality) (brine shrimp nauplii) [µg/mL] | viability at 24 h, 1 µM [3] [%] | viability at 24 h, 10 µM [3] [%] | viability at 24 h, 50 µM [3] [%] | viability at 24 h, 100 µM [3] [%] | IC50 at 24 h [3] [µM] | activity at 1 µM [4] [%] | activity at 10 µM [4] [%] | activity at 50 µM [4] [%] | activity at 100 µM [4] [%] | other results |
| --- | --- | --- | --- | --- | --- | --- | --- | --- | --- | --- | --- | --- | --- | --- | --- | --- |
| CC(=O)Oc1ccccc1C(=O)O [Acetyl salicylic acid, reference compound] | – | – | – | – | – | – | – | – | – | – | – | – | – | – | – | Paw thickness ([1]; 0 h after carrageenan injection): 2.14 ± 0.08; Paw thickness ([1]; 2 h after carrageenan injection): 2.26 ± 0.05; Paw thickness ([1]; 4 h after carrageenan injection): 2.32 ± 0.04; Paw thickness ([1]; 6 h after carrageenan injection): 2.39 ± 0.02 |
| O=C1O[C@H]([C@@H](O)CO)C(O)=C1O [Ascorbic Acid, reference compound] | 31.35 ± 0.23 | 52.12 ± 0.31 | 76.63 ± 0.19 | 89.01 ± 0.18 | 41.38 ± 0.34 (≈ 235 µM) | – | – | – | – | – | – | – | – | – | – | – |
| N.N.[Cl][Pt][Cl] [Cisplatin, reference compound] | – | – | – | – | – | – | – | – | – | – | – | – | – | – | – | IC50 (Hep-2C cells; 24 h): 19.1 ± 1.06 µM; IC50 (Hep-2C cells; 48 h): 17.5 ± 1.07 µM; IC50 (Hep-2C cells; 72 h, listed as cisplatin): 14.6 ± 1.01 µM; IC50 (Hep-2C cells; 72 h): 14.6 ± 1.01 µM |
| COc1cccc2c1C(=O)c1c(O)c3c(c(O)c1C2=O)C[C@@](O)(C(=O)CO)C[C@@H]3O[C@H]1C[C@H](N)[C@H](O)[C@H](C)O1 [Doxorubicin, reference compound] | – | – | – | – | – | 124 ± 1.54 | 51 ± 1.34 | 40 ± 0.87 | 33 ± 1.01 | 17 ± 0.83 | 17.1 ± 0.37 | – | – | – | – | – |
| CN1C(C(=O)Nc2ccccn2)=C(O)c2ccccc2S1(=O)=O [Piroxicam, reference compound] | – | – | – | – | – | – | – | – | – | – | – | 25.4 ± 0.45 | 20.7 ± 0.24 | 16.5 ± 0.41 | 13.4 ± 0.54 | – |
| O=c1c(O)c(-c2ccc(O)c(O)c2)oc2cc(O)cc(O)c12 [Quercetin, reference compound] | 42.34 ± 0.36 | 58.31 ± 0.28 | 69.81 ± 0.17 | 81.43 ± 0.21 | 41.64 ± 1.01 (≈ 138 µM) | – | – | – | – | – | – | – | – | – | – | – |
| c1ccc2c(c1)CCCN2CN1CCNCC1 [SF6, 1-(Piperazine-1-ylmethyl)-1,2,3,4-tetrahydroquinoline] | 8.81 ± 0.21 | 37.75 ± 0.31 | 50.32 ± 0.18 | 66.61 ± 0.13 | 35.89 ± 0.33 (≈ 155 µM) | 121.2 ± 1.09 | 91 ± 0.99 | 87 ± 0.82 | 65 ± 0.76 | 60 ± 1.21 | 23.37 ± 0.17 | 77.3 ± 0.62 | 72.33 ± 0.59 | 61.11 ± 0.54 | 52.44 ± 0.49 | – |
| CCN(CC)CN1CCCc2ccccc21 [SF11, N-((3,4-dihydroquinolin-1(2H)-yl)methyl)-N-ethylethanamine] | 7.76 ± 0.18 | 15.54 ± 0.09 | 30.9 ± 0.12 | 43.93 ± 0.28 | 53.63 ± 0.13 (≈ 246 µM) | 200 ± 2.11 | 95 ± 0.91 | 82 ± 0.84 | 62 ± 1.2 | 41 ± 0.83 | 26.4 ± 0.31 | 43 ± 0.66 | 39.8 ± 0.61 | 33.7 ± 0.53 | 25.7 ± 0.44 | – |
